Laboratory results published in patent US11382878B2, “Use of metformin and sodium butyrate for treating conditions induced by chronic inflammation” (Johnpro Biotech Inc., priority 2017, dated 2022).

How the values were obtained:
[1] = system: radiation induced inflammation of the rectum; assay: Radiation induced rectum inflammation in mice (gross rectum observation, H&E staining)
radiation proctitis = assay: Clinical case: radiation proctitis patient treated by enema; assay type: in vivo, human; conditions: one patient, grade 3 radiation proctitis, sulfasalazine and steroids enema treatment for 6 months

C[C@]12CCC(=O)C=C1CC[C@@H]1[C@@H]2C(=O)C[C@@]2(C)[C@H]1CC[C@]2(O)C(=O)CO [cortisone]
stool in the rectum (rectum mucosa function of absorbing water) ([1]; 30 Gy radiation on Day 1, rectal enema once daily Day 8 to Day 14, observed Day 14 (FIG. 4A, 4B)): a significant amount of loose stool was seen in the rectum
crypt tissue / damage to the intestine mucosa (H&E stain) ([1]; 30 Gy radiation on Day 1, rectal enema once daily Day 8 to Day 14, rectum samples Day 14 (FIG. 5A)): the crypt tissue was not observed

O=C(O)c1cc(/N=N/c2ccc(S(=O)(=O)Nc3ccccn3)cc2)ccc1O [sulfasalazine]
response of symptoms to prior treatment (radiation proctitis): refractory
